Source: patent US6943187B2, “Pyrrolidine derivative hair growth compositions and uses” (GPI Nil Holdings, Inc., priority 1997, dated 2005)
Entries after “also recorded” stand apart in the source; their conditions may differ.

System: hair growth
Assay: not given
Details: topical, but not oral, application; cited from earlier work
For `C=CC[C@@H]1/C=C(\C)C[C@H](C)C[C@H](OC)[C@H]2O[C@@](O)(C(=O)C(=O)N3CCCC[C@H]3C(=O)O[C@H](/C(C)=C/[C@@H]3CC[C@@H](O)[C@H](OC)C3)[C@H](C)[C@@H](O)CC1=O)[C@H](C)C[C@@H]2OC` [FK506], the “stimulation of hair growth” value is given as “stimulates hair growth in a dose-dependent manner”.

System: C57 black 6 mice
Assay: In vivo hair generation test, Experiment A (topical, shaved area)
Details: 30 μM topical in 20% propylene glycol, 3 applications over 5 days, after six weeks; listed as GPI 1046
From the text: Care was taken not to nick or cause abrasion to the underlaying dermal layers. The animals were in anagen growth phase, as indicated by the pinkish color of the skin. […] Hair growth was quantitated by the percent of shaved area covered by new hair growth during this time period.
With `CCC(C)(C)C(=O)C(=O)N1CCC[C@H]1C(=O)OCCCc1cccnc1` [Compound 17, 3-(3-Pyridyl)-1-propyl (2S)-1-(3,3-dimethyl-1,2-dioxopentyl)-2-pyrrolidinecarboxylate] the “hair regrowth in the shaved area” value was “essentially, complete hair regrowth; also recorded: essentially complete hair regrowth”.

Target: FKBP12 (Homo sapiens, UniProt P62942)
Sequence (P62942 whole entry, species assumed): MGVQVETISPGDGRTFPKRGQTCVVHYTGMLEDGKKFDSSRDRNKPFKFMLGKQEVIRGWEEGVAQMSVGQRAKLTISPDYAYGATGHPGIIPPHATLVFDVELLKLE
Assay: Inhibition of peptidyl-prolyl isomerase (rotamase) activity, chymotrypsin-coupled assay (Ki test procedure)
Format: biochemical
Details: apparent Ki, rotamase inhibition of FKBP, substrate N-succinyl-Ala-Ala-Pro-Phe-p-nitroanilide
Method: The inhibition of the prolyl peptidyl cis-trans isomerase activity of FKBP may be measured as an indicator of this affinity.
The cis-trans isomerization of an alanine-proline bond in a model substrate, N-succinyl-Ala-Ala-Pro-Phe-p-nitroanilide, is monitored spectrophotometrically in a chymotrypsin-coupled assay, which releases para-nitroanilide from the trans form of the substrate. The inhibition of this reaction caused by the addition of different concentrations of inhibitor is determined, and the data is analyzed as a change in first-order rate constant as a function of inhibitor concentration to yield the apparent K1 values.
In a plastic cuvette are added 950 ml of ice cold assay buffer (25 mM HEPES, pH 7.8, 100 mM NaCl), 10 ml of FKBP (2.5 mM in 10 mM Tris-Cl pH 7.5, 100 mM NaCl, 1 mM dithiothreitol), 25 ml of chymotrypsin (50 mg/ml in 1 mM HCl) and 10 ml of test compound at various concentrations in dimethyl sulfoxide.
With `CCC(C)(C)C(=O)C(=O)N1CCC[C@H]1C(=O)OCCCc1cc(OC)c(OC)c(OC)c1` [Compound 3, 3-(3,4,5-trimethoxyphenyl)-1-propyl (2S)-1-(3,3-dimethyl-1,2-dioxopentyl)-2-pyrrolidine-carboxylate] the Ki was 200 nM.
Compound `CCC(C)(C)C(=O)C(=O)N1CCC[C@H]1C(=O)OCCCc1ccc2c(c1)OCO2` [Compound 5, 3-(4,5-methylenedioxyphenyl)-1-propyl (2S)-1-(3,3-dimethyl-1,2-dioxopentyl)-2-pyrrolidine-carboxylate] has a Ki of 170 nM.
Work on `CCC(C)(C)C(=O)C(=O)N1CCC[C@H]1C(=O)OCCCC1CCCCC1` [Compound 7, 3-cyclohexyl-1-propyl (2S)-1-(3,3-dimethyl-1,2-dioxopentyl)-2-pyrrolidinecarboxylate] yielded a Ki of 200 nM.
Compound `CCC(C)(C)C(=O)C(=O)N1CCC[C@H]1C(=O)OCCCc1cc(OC)ccc1OC` [Compound 14, 3-(2,5-dimethoxyphenyl)-1-propyl (2S)-1-(3,3-dimethyl-1,2-dioxopentyl)-2-pyrrolidine-carboxylate] has a Ki of 250 nM.
For `CCC(C)(C)C(=O)C(=O)N1CCC[C@H]1C(=O)OCCc1cc(OC)c(OC)c(OC)c1` [Compound 16, 2-(3,4,5-trimethoxyphenyl)-1-ethyl (2S)-1-(3,3-dimethyl-1,2-dioxopentyl)-2-pyrrolidine-carboxylate], the Ki was 120 nM.
Work on `CCC(C)(C)C(=O)C(=O)N1CCC[C@H]1C(=O)OCCCc1cccnc1` [Compound 17, 3-(3-Pyridyl)-1-propyl (2S)-1-(3,3-dimethyl-1,2-dioxopentyl)-2-pyrrolidinecarboxylate] yielded a Ki of 5 nM.
`CCC(C)(C)C(=O)C(=O)N1CCC[C@H]1C(=O)OCCCc1ccccn1` [Compound 18, 3-(2-Pyridyl)-1-propyl (2S)-1-(3,3-dimethyl-1,2-dioxopentyl)-2-pyrrolidinecarboxylate] showed a Ki of 195 nM.
In the case of `CCC(C)(C)C(=O)C(=O)N1CCC[C@H]1C(=O)OCCCc1ccncc1` [Compound 19, 3-(4-Pyridyl)-1-propyl (2S)-1-(3,3-dimethyl-1,2-dioxopentyl)-2-pyrrolidinecarboxylate], the Ki is reported as 23 nM.
With `CC(C)(C)C(=O)C(=O)N1CCC[C@H]1C(=O)OCCCc1ccccc1` [Compound 21, 3-phenyl-1-propyl (2S)-1-(2-tert-butyl-1,2-dioxoethyl)-2-pyrrolidinecarboxylate] the Ki was 95 nM.
With `O=C(CCC1CCCCC1)C(=O)N1CCC[C@H]1C(=O)OCCCc1ccccc1` [Compound 22, 3-phenyl-1-propyl (2S)-1-(2-cyclohexyl-ethyl-1,2-dioxoethyl)-2-pyrrolidinecarboxylate] the Ki was 1020 nM.
`O=C(CCC1CCCCC1)C(=O)N1CCC[C@H]1C(=O)OCCCc1cccnc1` [Compound 23, 3-(3-pyridyl)-1-propyl (2S)-1-(2-cyclohexylethyl-1,2-dioxoethyl)-2-pyrrolidinecarboxylate] gave a Ki of 1400 nM.
With `CC(C)(C)C(=O)C(=O)N1CCC[C@H]1C(=O)OCCCc1cccnc1` [Compound 24, 3-(3-pyridyl)-1-propyl (2S)-1-(2-tert-butyl-1,2-dioxoethyl)-2-pyrrolidinecarboxylate] the Ki was 3 nM.
Work on `CCC(C)(C)C(=O)C(=O)N1CCC[C@H]1C(=O)OCCC(c1ccccc1)c1ccccc1` [Compound 25, 3,3-diphenyl-1-propyl (2S)-1-(3,3-dimethyl-1,2-dioxopentyl)-2-pyrrolidinecarboxylate] yielded a Ki of 5 nM.
`CC(C)(C)C(=O)C(=O)N1CCC[C@H]1C(=O)OCCC(c1ccccc1)c1ccccc1` [Compound 28, 3,3-Diphenyl-1-propyl (2S)-1-(3,3-dimethyl-1,2-dioxobutyl)-2-pyrrolidinecarboxylate] gave a Ki of 5 nM.
